Tests used:
[1] = test system: anesthetized PAH minipigs; assay: PAH minipig, intratracheal application of dry powder formulations and of different hydrates (PAP, BP); type: in vivo, Göttingen Minipigs; details: dry powder lactose formulation, i.t.
Description: Healthy Göttingen Minipigs® Ellegaard (Ellegaard, Denmark) of both sexes and having a weight of 2-6 kg were used. The animals were sedated by i.m. administration of about 25 mg/kg ketamine and about 10 mg/kg azaperone. Anaesthesia was initiated by i.v. administration of about 2 mg/kg ketamine and about 0.3 mg/kg midazolam. Maintenance of anaesthesia was by i.v. administration of about 7.5-30 mg/kg/h ketamine and about 1-4 mg/kg/h midazolam (rate of infusion 1-4 ml/kg/h) and about 150 μg/kg/h pancuronium bromide (for example Pancuronium-Actavis). After intubation, the animals were ventilated by the ventilator at a constant respiratory volume (10-12 ml/kg, 35 breaths/min; Avea®, Viasys Healthcare, USA, or Engström Carestation, GE Healthcare, Freiburg, Germany) such that an end-tidal CO2 concentration of about 5% was achieved. Ventilation was performed with room air, enriched with about 40% oxygen (normoxia). For the measurement of the haemodynamic parameters such as pulmonary arterial pressure (PAP), blood pressure (BP) and heart rate (HR), catheters were inserted into the carotid artery to measure the blood pressure, and a Swan-Ganz® catheter was introduced in a flow-directed manner via the jugular vein into the pulmonary artery. The haemodynamic signals were recorded and evaluated by means of pressure transducers (Combitransducer, B. Braun, Melsungen, Germany)/amplifiers and Ponemah® as data acquisition software.
About 0.3-0.75 μg/kg/min of 9,11-didesoxy-9α,11α-epoxymethanoprostaglandine F2α (U-44069; Sigma, cat. no. D0400, or Cayman Chemical Company, cat. no. 16440), dissolved in physiological saline, were infused to achieve an increase of the mean pulmonary arterial pressure to values of over 25 mmHg.
After characterization of the effects of comparative example 11 after nebulization of compound solutions, in a further step the effects of crystalline forms of comparative example 11, e.g. sesquihydrate, e.g. example 6e on PAP and BP after inhaled application of different dry powder lactose formulations (table 52) were studied in anesthetized PAH minipigs.
As reference pure Lactose vehicle was applied in the beginning of each experiment.

PAH-minipig = PAH-minipig model, inhaled application on top of PAH standard-of-care; type: in vivo; details: bosentan, sildenafil, Ilomedin, riociguat
soluble guanylyl cyclase = assay: Efficacy under experimental conditions of oxidative stress (ODQ, L-NAME treatment); type: in vivo

O=C(O)c1ccc(CCN(CCc2ccccc2OCc2ccc(-c3ccc(C(F)(F)F)cc3)cc2Cl)[C@H]2CCCc3nc(C(=O)O)ccc32)cc1 [Comparative example 11, (5S)-5-{[2-(4-carboxyphenyl)ethyl][2-(2-{[3-chloro-4′-(trifluoromethyl)[biphenyl]-4-yl]methoxy}phenyl)ethyl]amino}-5,6,7,8-tetrahydroquinoline-2-carboxylic Acid]
MED [1]: < 7.5 µg/kg
effect on PAP on top of PAH standard-of-care (PAH-minipig): selectively decreased elevated PAP
efficacy under oxidative stress (soluble guanylyl cyclase): enhanced
